# Measured values: the AptaBench aptamer set (doi:10.1093/nar/gkaf219)
# Key:
# Details in all cases: 10 mM Tris-HCl, pH 7.4
# [1] = test system: DNA aptamer or structured DNA GGGACGACGGCACGAGGTTATTCGTTGGTTGCACTGCGCTGGGAGGTAGTCGTCCC
# [2] = test system: DNA aptamer or structured DNA CTTACGACTAGTGGAGTAGGGTCGGGTAGTGGGCCTCAGTCGTAAG
# [3] = test system: DNA aptamer or structured DNA GGGACGACAGCTTGGCTTGGTCGGGGTAGGGTTCGGATGTCGTCCC
# [4] = test system: DNA aptamer or structured DNA CTTACGACGGGGTTCAGAGGGTCAACGGTGGTGTTGTCGTCGTAAG
# [5] = test system: DNA aptamer or structured DNA GGGACGACGGCAGGGTGTTGGTGGGGTAGGTCAATGTAGTCGTCCC
# [6] = test system: DNA aptamer or structured DNA CTTACGACGTGGGAAGTGTGGTTTGTGATCGGATCCGTGTCGTAAG
# [7] = test system: DNA aptamer or structured DNA CTTACGACGCGGACGTTGTGGGGCGTGGCAGTCGGTGGGTCGTAAG
# [8] = test system: DNA aptamer or structured DNA TTCAAATCTGGCGCAGGTAGGGGTGTAGGTGTGGGGGTAAGTCTAGATTTGAA
# [9] = test system: DNA aptamer or structured DNA GGGACGACGGGAAATGGAAGCATTGGTTGAGTTACTCTGCTCCTGTCGTCCC
# [10] = test system: DNA aptamer or structured DNA TTCAAATCTTATGTACGTTCTATCGCATGGATGGGATTTTGGGTTACCTAGTCTAGATTTGAA
# [11] = test system: DNA aptamer or structured DNA GGGACGACTAGCCGTGGCGTTGTCCGAACCAGTGAGTAGTCGTCCC
# [12] = test system: DNA aptamer or structured DNA CTTACGACGGTGGTGTGGTACTGGGCTTGGGGGGTGTTGTCGTAAG
# [13] = test system: DNA aptamer or structured DNA GGGACGACGGGATGGTAAGTGGCAGGTCGTTGGAATTTCTACTGTATCGTCGTCCC
# [14] = test system: DNA aptamer or structured DNA GGGACGACTGCTTGGGTAGGTCGGGCTTGGGTTCGGCGGTCGTCCC
# [15] = test system: DNA aptamer or structured DNA CTTACGACTAGGTGTGGGTCGGCTGCTTTCGCAGGGTAGTCGTAAG
# [16] = test system: DNA aptamer or structured DNA CTTACGACTAGTTCGGATAAGGGGTAGGTGTGGTTGTGGTCGTAAG
# [17] = test system: DNA aptamer or structured DNA GGGACGACCTAGGGCTTGGGTTTAGGTGTGGGGTGTTGGGTCGTCCC
# [18] = test system: DNA aptamer or structured DNA CTTACGACAAGGGATGTGTAGTTAGTGGTCGGATCCGAGTCGTAAG
# [19] = test system: DNA aptamer or structured DNA CTTACGACTAGTCGGTGGGGGGTAGGCGGAGGGTTGTTGTCGTAAG
# [20] = test system: DNA aptamer or structured DNA GGGACGACGGGACGGTAAGTGGCAGGTCGTTGGAATTTCTACTGTATCGTCGTCCC
# [21] = test system: DNA aptamer or structured DNA TTCAAATCTCGCGCAGGTAGGGGTGTAGGTGTGGGGGTAAGTCTAGATTTGAA
# [22] = test system: DNA aptamer or structured DNA CTTACGACTTTTGGGTGTCTGGGTGGGAGGTCGTAAG
# [23] = test system: DNA aptamer or structured DNA GGGACGACGGCTTGCATTGAGCAGAAGGGGTACACGCTGTCGTCCC
# [24] = test system: DNA aptamer or structured DNA TTCAAATCTTGGTACGTTCTGCCTTTTCTTATTTTGCTTTGGGTTACCTAGTCTAGATTTGAA
# [25] = test system: DNA aptamer or structured DNA CTTACGACACAGGGGGGGGCTAGGGTGCGCGGAAGCTGGTCGTAAG
# [26] = test system: DNA aptamer or structured DNA TTCAAATCTGAGCAGCCTAGTTACTGACGGGTTTATAGTACTCGTATTGAGTCTAGATTTGAA
# [27] = test system: DNA aptamer or structured DNA GGGACGACGGTTGGCTTGGGTCGGGTGTGGGTGCGGCGTCGTCCC
# [28] = test system: DNA aptamer or structured DNA CTTACGACATGGGATGTAAGTTAGTGGGTCGGATCCGGGTCGTAAG
# [29] = test system: DNA aptamer or structured DNA CTTACGACCTGTTCTGAGGGTCAACGGTGGTGTAGTCGGTCGTAAG
# [30] = test system: DNA aptamer or structured DNA TTCAAATCTGAGCAGCCTAGTTACTGACGGGTTTATAGTACTCGCATTGAGTCTAGATTTGAA
# [31] = test system: DNA aptamer or structured DNA CTTACGACAGGGGTACCCGCGTATAACGTGGCGTTCGTGTCGTAAG
# [32] = test system: DNA aptamer or structured DNA TTCAAATCTGAGCAGCCTAGTTACTGACGGGTTTATAGTACTCACATTGAGTCTAGATTTGAA
# [33] = test system: DNA aptamer or structured DNA TTCAAATCTGAGCAGCCTAGTTACTGACGGGTTTATAGTACTCGCATCGAGTCTAGATTTGAA
# [34] = test system: DNA aptamer or structured DNA CTTACGACTAGGCGGGGGTCGGCCACCGAGGTGGGGTAGTCGTAAG
# Wherever binding call is given: call rule not given here.
smiles,measurement,setting,value
CCN(CC)CCOC(=O)c1ccc(N)cc1,binding call,[1],no binding
same,binding call,[2],no binding
same,binding call,[3],binds
same,binding call,[4],no binding
same,binding call,[5],no binding
same,binding call,[6],binds
same,binding call,[7],no binding
same,binding call,[8],no binding
same,binding call,[9],no binding
same,binding call,[10],no binding
same,binding call,[11],no binding
same,binding call,[12],binds
same,binding call,[13],binds
same,binding call,[14],binds
same,binding call,[15],no binding
same,binding call,[16],binds
same,binding call,[17],no binding
same,binding call,[18],no binding
same,binding call,[19],no binding
same,binding call,[20],no binding
same,binding call,[21],no binding
same,binding call,[22],no binding
same,binding call,[23],no binding
same,binding call,[24],no binding
same,binding call,[25],binds
same,binding call,[26],no binding
same,binding call,[27],no binding
same,binding call,[28],no binding
same,binding call,[29],no binding
same,binding call,[30],no binding
same,binding call,[31],no binding
CCC(=O)C(CC(C)N(C)C)(c1ccccc1)c1ccccc1 (centres undefined),binding call,[1],no binding
same,binding call,[3],binds
same,binding call,[5],no binding
same,binding call,[8],no binding
same,binding call,[9],no binding
same,binding call,[32],no binding
same,binding call,[33],no binding
same,binding call,[10],no binding
same,binding call,[12],no binding
same,binding call,[13],no binding
same,binding call,[14],binds
same,binding call,[17],no binding
same,binding call,[24],no binding
same,binding call,[26],no binding
same,binding call,[27],no binding
same,binding call,[30],no binding
CN(C)CCOC(c1ccccc1)c1ccccc1,binding call,[2],no binding
same,binding call,[3],no binding
same,binding call,[5],binds
same,binding call,[6],no binding
same,binding call,[7],no binding
same,binding call,[8],no binding
same,binding call,[9],no binding
same,binding call,[32],no binding
same,binding call,[33],no binding
same,binding call,[10],no binding
same,binding call,[11],no binding
same,binding call,[12],no binding
same,binding call,[13],no binding
same,binding call,[14],binds
same,binding call,[15],no binding
same,binding call,[16],binds
same,binding call,[17],no binding
same,binding call,[18],no binding
same,binding call,[19],binds
same,binding call,[21],no binding
same,binding call,[22],no binding
same,binding call,[23],no binding
same,binding call,[24],no binding
same,binding call,[25],no binding
same,binding call,[26],no binding
same,binding call,[29],no binding
same,binding call,[34],no binding
same,binding call,[30],no binding
same,binding call,[31],no binding
COC(=O)[C@@H]1C2CCC(C[C@@H]1OC(=O)c1ccccc1)N2C (some centres undefined),binding call,[1],no binding
same,binding call,[2],no binding
same,binding call,[5],no binding
same,Kd,[6],168 nM
same,Kd,[7],372 nM
same,binding call,[8],no binding
same,binding call,[9],no binding
same,binding call,[32],no binding
same,Kd,[12],335 nM
same,binding call,[13],no binding
same,binding call,[14],no binding
same,Kd,[15],350 nM
same,Kd,[16],192 nM
same,binding call,[17],binds
same,Kd,[18],2650 nM
same,Kd,[19],122 nM
same,binding call,[20],no binding
same,binding call,[21],no binding
same,Kd,[22],67 nM
same,binding call,[23],no binding
same,binding call,[24],no binding
same,Kd,[25],155 nM
same,binding call,[26],no binding
same,binding call,[27],no binding
same,Kd,[29],53 nM
same,Kd,[34],315 nM
same,binding call,[30],no binding
same,binding call,[31],no binding
